Tests used:
[1] = tested on: human prostate cancer cells (PC3); experiment: Cytotoxicity by SRB assay, PC3 cells; type: cell-based; conditions: PC-3 cells; for IC50: mean ± SD
Method: (§1) The human prostate cancer cells (PC3) and human osteosarcoma cells (MG-63) were obtained from Nawah Scientific Inc. (Mokatam, Cairo, Egypt) and cultured in DMEM (Dulbecco's modified eagle's medium), Gibco, USA, supplemented with fetal bovine serum (FBS) at a concentration of 10% and 100 U/mL of penicillin and streptomycin (PS). The Cells were incubated at 37° C. in a humidified environment that contained 5% CO2.
(§2) Cells were seeded in 96-well plates as aliquots of 100 μL cell suspension and incubated in a complete media for 24 h. Afterward, cells were treated with N′-[(2-chlorobenzoyl)oxy]-1,3-benzothiazole-2-carboximidamide at diverse concentrations ranging from 0.01 μM to 100 μM for 72 h. Then, cells were fixed at 4° C. for one hour with 150 μL of 10% trichloroacetic acid (TCA). After washing the cells five times with distilled water, 70 μL of sulforhodamine (SRB) solution (0.4% w/v) was added and incubated for 10 min at room temperature in a dark place. Cells were washed with 1% acetic acid three times and allowed to air-dry. Then, 150 μL of Tris pH 10.5 (10 mM) was added, and the absorbance was measured at 540 nm using a BMG LABTECH®-FLUOstar Omega microplate reader (Ortenberg, Germany). Half maximal inhibitory concentrations (IC50) values were calculated for each experiment using GraphPad Prism 6 software. IC50 values were reported as mean […] SD.
(§3) The inhibition was calculated using the following equation: Inhibition %=100−Average Viability

[2] = tested on: human osteosarcoma cells (MG-63); experiment: Cytotoxicity by SRB assay, MG-63 cells; type: cell-based; conditions: for IC50: mean ± SD
Method: as §1, §2, §3

[3] = tested on: Bacillus cereus, Staphylococcus aureus, Pseudomonas aeruginosa, Escherichia coli, Aspergillus flavus, Chrysosporium keratinophilum; experiment: Agar plate disc-diffusion antimicrobial screen; type: cell-based; conditions: 10 μL of 10 mg/mL in DMSO per disc, result in words only
Method: The agar plate disc-diffusion method was applied. Sterilized filter papers (6 mm in diameter) were wetted with 10 μL of a solution of each compound to be tested, containing 10 mg/mL in DMSO, and the discs were allowed to air dry. The discs were then placed onto the surface of agar plates (nutrient agar for bacteria and Sabouraud's dextrose agar for fungi) and seeded with the test organism. Each plate contained 15 mL of the agar medium, previously seeded with 0.2 mL of the broth culture of each organism pre-grown for 18 h. The plates were incubated at 37° C. for 48 h, and 72 h for fungi. The inhibition zones were measured in mm. Discs impregnated with DMSO were used as a control, and its inhibition zone was subtracted from the tested compound actual inhibition zone.
In particular, the present 1,3-benzothiazol-2-yl-N′-[(pyridine-3-carbonyl)oxy]ethanimidamide was screened against gram positive bacteria, namely Bacillus cereus and Staphylococcus aureus, and gram-negative bacterial strains, namely Pseudomonas aeruginosa and Escherichia coli, while the antifungal activity was screened against Aspergillus flavus and Chrysosporium keratinophilum.

Structure (SMILES)	IC50 ([1]; Homo sapiens, PC-3, 72 h) [µM]	IC50 ([2]; Homo sapiens, MG-63, 72 h) [µM]	antimicrobial activity [3]	Prostate Cancer (PC-3) Inhibition % ([1]; 10 μg/ml, 72 h) [%]	inhibition at 10 µg/mL ([1]; Homo sapiens, PC-3, 72 h, 10 μg/ml) [%]	inhibition at 100 µg/mL ([1]; Homo sapiens, PC-3, 72 h, 100 μg/ml) [%]	IC50 ([1]; 72 h) [µM]	IC50 ([2]; 72 h) [µM]	inhibition at 10 µg/mL ([2]; Homo sapiens, 10 μg/ml, 72 h) [%]	inhibition at 100 µg/mL ([2]; Homo sapiens, 100 μg/ml, 72 h) [%]	melting point [°C]
COc1cccc2c1C(=O)c1c(O)c3c(c(O)c1C2=O)C[C@@](O)(C(=O)CO)C[C@@H]3O[C@H]1C[C@H](N)[C@H](O)[C@H](C)O1 [DOX, Doxorubicin, reference compound]	7.6 ± 0.45	9.4 ± 1.1									
NC(=NOC(=O)c1ccccc1Cl)c1nc2ccccc2s1 [N′-[(2-chlorobenzoyl)oxy]-1,3-benzothiazole-2-carboximidamide]			excellent antimicrobial activities								
N/C(Cc1nc2ccccc2s1)=N\OC(=O)c1cccnc1 [Present Compound, 1,3-benzothiazol-2-yl-N′-[(pyridine-3-carbonyl)oxy]ethanimidamide]	< 4	< 4	high levels of antimicrobial activity	96.21	96	97	2.71 ± 0.03	3.59 ± 0.2	91.2	92.1	150 to 152

— US11912697B1, “1,3-benzothiazol-2-yl-N′-[(pyridine-3-carbonyl)oxy]ethanimidamide as an antitumor and antimicrobial compound” (King Faisal University, priority 2023, dated 2024)
